Molecular target: T1, Recombinant human cathepsin A (Homo sapiens, UniProt P10619)
T1 construct: Recombinant human cathepsin A (residues 29-480, with a C-terminal 10-His tag); 10-His (C); purchased R&D Systems 1049-SE
T1 sequence (P10619 29-326 limits assumed): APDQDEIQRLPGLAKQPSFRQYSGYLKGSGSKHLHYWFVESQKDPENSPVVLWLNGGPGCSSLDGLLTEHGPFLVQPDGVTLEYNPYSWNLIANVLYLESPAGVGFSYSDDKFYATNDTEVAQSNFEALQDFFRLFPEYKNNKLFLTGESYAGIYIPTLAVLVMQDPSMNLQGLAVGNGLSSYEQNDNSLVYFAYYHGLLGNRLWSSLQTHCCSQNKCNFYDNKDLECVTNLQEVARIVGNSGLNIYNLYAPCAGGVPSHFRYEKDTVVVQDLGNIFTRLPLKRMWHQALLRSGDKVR
T1 sequence (P10619 327-480 limits assumed): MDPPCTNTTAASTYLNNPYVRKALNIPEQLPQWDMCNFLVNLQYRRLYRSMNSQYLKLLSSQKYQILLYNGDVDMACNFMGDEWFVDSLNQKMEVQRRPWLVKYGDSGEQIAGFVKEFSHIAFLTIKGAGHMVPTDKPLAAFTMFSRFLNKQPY
Assay: Cathepsin A inhibitory activity
Assay type: biochemical
Conditions: activated recombinant human cathepsin A 833 ng/ml, Bodipy FL-labeled bradykinin substrate 2 μM, pH 5.5, room temperature
Method in brief: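 Enzyme (residues 29-480, C-terminal His tag) pre-activated by cathepsin L at 37° C, then quenched with E-64. Compound preincubated 15 min at room temperature in 25 mM MES pH 5.5 with 5 mM DTT, then 2 μM Bodipy FL-bradykinin added for 15 min at 833 ng/ml enzyme. Product/substrate separated by microfluidic capillary electrophoresis; IC50 from multi-concentration inhibition.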

Row | Compound | IC50 [µM]
1 | O=C(O)CC(NC(=O)c1csc(-c2ccc(Cl)cc2)n1)C1CCCCC1 (centres unmarked) [Example 126, 3-{[2-(4-Chloro-phenyl)-thiazole-4-carbonyl]-amino}-3-cyclohexyl-propionic acid] | 3.94
2 | Cc1ccccc1-c1nc(C(=O)NC(CC(=O)O)C2CCCCC2)cs1 (centres unmarked) [Example 128, 3-Cyclohexyl-3-[(2-o-tolyl-thiazole-4-carbonyl)-amino]-propionic acid] | 0.81
3 | O=C(O)CC(NC(=O)c1csc(-c2cccc(Cl)c2Cl)n1)C1CCCCC1 (centres unmarked) [Example 130, 3-Cyclohexyl-3-{[2-(2,3-dichloro-phenyl)-thiazole-4-carbonyl]-amino}-propionic acid] | 1.1
4 | O=C(O)CC(NC(=O)c1csc(-c2ccc(C(F)(F)F)cc2)n1)C1CCCCC1 (centres unmarked) [Example 132, 3-Cyclohexyl-3-{[2-(4-trifluoromethyl-phenyl)-thiazole-4-carbonyl]-amino}-propionic acid] | 11.2
5 | O=C(O)CC(Cc1ccccc1)NC(=O)c1csc(-c2ccccc2)n1 (centres unmarked) [Example 134, 4-Phenyl-3-[(2-phenyl-thiazole-4-carbonyl)-amino]-butyric acid] | 3.42
6 | O=C(O)CC(Cc1ccccc1)NC(=O)c1csc(-c2ccc(C(F)(F)F)cc2)n1 (centres unmarked) [Example 135, 4-Phenyl-3-{[2-(4-trifluoromethyl-phenyl)-thiazole-4-carbonyl]-amino}-butyric acid] | 22.2

The remaining lines, values ahead:

Row | IC50 [µM] | Compound
7 | 12.6 | O=C(O)CC(Cc1ccccc1)NC(=O)c1csc(-c2ccc(Cl)cc2)n1 (centres unmarked) [Example 127, 3-{[2-(4-Chloro-phenyl)-thiazole-4-carbonyl]-amino}-4-phenyl-butyric acid]
8 | 1.12 | O=C(O)CC(NC(=O)c1csc(-c2ccccc2)n1)C1CCCCC1 (centres unmarked) [Example 129, 3-Cyclohexyl-3-[(2-phenyl-thiazole-4-carbonyl)-amino]-propionic acid]
9 | 1.43 | O=C(O)CC(NC(=O)c1csc(-c2ccccc2F)n1)C1CCCCC1 (centres unmarked) [Example 131, 3-Cyclohexyl-3-{[2-(2-fluoro-phenyl)-thiazole-4-carbonyl]-amino}-propionic acid]
10 | 3.37 | Cc1ccccc1-c1nc(C(=O)NC(CC(=O)O)Cc2ccccc2)cs1 (centres unmarked) [Example 133, 4-Phenyl-3-[(2-o-tolyl-thiazole-4-carbonyl)-amino]-butyric acid]
11 | 0.0889 | Cc1ccccc1[C@H](CC(=O)O)NC(=O)c1nc(-c2ccccc2)cs1 [Example 136, (S)-3-[(4-Phenyl-thiazole-2-carbonyl)-amino]-3-o-tolyl-propionic acid]

From US9174952B2, “Substituted 3-thiazoloamino-propionic acid derivatives and their use as pharmaceuticals” (SANOFI, priority 2011, dated 2015)
